From ChEMBL document CHEMBL1932982, “Virtual ligand screening of α-glucosidase: Identification of a novel potent noncarbohydrate mimetic inhibitor” (Bioorg Med Chem Lett, 2012)
Calls of active or inactive are those of the source. No cut-off for these calls is given here.

Columns and labels:
[1] = Inhibition of Saccharomyces cerevisiae alpha-glucosidase using 4-nitrophenyl alpha-D-glucopyranoside as substrate preincubated for 120 mins
Saccharomyces cerevisiae [2] = test: Inhibition of Saccharomyces cerevisiae alpha-glucosidase using 4-nitrophenyl alpha-D-glucopyranoside as substrate
Saccharomyces cerevisiae [3] = test: Irreversible inhibition of Saccharomyces cerevisiae alpha-glucosidase using 4-nitrophenyl alpha-D-glucopyranoside as substrate at 300 uM after 30 mins
Saccharomyces cerevisiae [4] = test: Time dependent inhibition of Saccharomyces cerevisiae alpha-glucosidase using 4-nitrophenyl alpha-D-glucopyranoside as substrate

Row | Compound | IC50 [1] [µM] | inhibition (Saccharomyces cerevisiae [2]) | inhibition (Saccharomyces cerevisiae [3]) | TDI (Saccharomyces cerevisiae [4])
1 | CC(C)(C)C1CCc2c(sc(NC(=O)CC3SC(N)=NC3=O)c2C#N)C1 (racemic) [listing 1 of 2 here] | 27.1 |  |  | 
2 | N#Cc1c(NC(=O)CC2SC(N)=NC2=O)sc2c1CCCCCC2 (single isomer, unassigned; enantiomer 1) |  | inactive |  | 
3 | CC(C)(C)C1CCc2c(sc(NC(=O)CC3SC(N)=NC3=O)c2C#N)C1 (single isomer, unassigned; enantiomer 1) |  | inactive |  | 
4 | CC(C)(C)C1CCc2c(sc(NC(=O)CC3SC(N)=NC3=O)c2C#N)C1 (racemic) [listing 2 of 2 here] |  | Active | Active | Active
5 | N#Cc1c(NC(=O)CC2SC(N)=NC2=O)sc2c1CCCCCC2 (racemic) [listing 1 of 2 here] |  | Active | Active | Active
6 | CC(C)(C)C1CCc2c(sc(NC(=O)CC3SC(N)=NC3=O)c2C#N)C1 (single isomer, unassigned; enantiomer 2) |  | inactive |  | 
7 | N#Cc1c(NC(=O)CC2SC(N)=NC2=O)sc2c1CCCCCC2 (racemic) [listing 2 of 2 here] | 2.47 |  |  | 
8 | N#Cc1c(NC(=O)CC2SC(N)=NC2=O)sc2c1CCCCCC2 (single isomer, unassigned; enantiomer 2) |  | inactive |  | 
